Like-named read-outs stand apart in the source and are kept apart here.
Columns and labels:
[1] = system: RS4; 11 (FLT3 wild type); assay: In vitro growth inhibition (GI50), RS4; 11; type: cell-based, human; settings: for GI50: Homo sapiens; for GI50 value, RS4; 11 (in words) / inhibitory effect on RS4; 11: FLT3 wild type high-expressing cells RS4; for inhibitory effect on RS4; 11: 11, under high concentrations
[2] = system: A549 (KRAS G12S mutant type); assay: In vitro growth inhibition (GI50), A549; type: cell-based; settings: Homo sapiens; A549, KRAS Gl2S
Excerpt: Tumor cell line is an effective cell model for studying the inhibition of tumor cell growth or proliferation in vitro. In the present invention, a representative tumor cell line was selected to determine the cell growth inhibition activity of the present compound. All cell lines used were from ATCC, DSMZ, and the Cell Bank of the Chinese Academy of Sciences. Cell culture conditions and methods were in accordance with the requirements of each cell line. Cells were subcultured in vitro for no more than 3 passages each time, and as required, single-clone purification and identification of cell lines could be carried out.
The cell culture media used were RPMI1640 (Gibco), MEM (Gibco), McCOY'S5A (Gibco), and IMDM (Gibco). The complete medium was prepared by supplement with 5˜20% fetal calf serum (Gibco), 1% double-antibiotics (10000 units/mL penicillin and 10000 units/mL), 2 mM glutamine or 1 mM sodium pyruvate, respectively.
Human large cell lung cancer cell NCI-H460 (KRAS […] mutant type, ATCC), human non-small cell lung cancer cell line H1299 (NRAS Q61K mutant type, ATCC), human melanoma cell line A375 (BRAF V600E mutant type, Shanghai Cell Bank of Chinese Academy of Sciences), human colon cancer cell line HCT116 (KRAS G13D mutant type, Shanghai Cell Bank, Chinese Academy of Sciences) were cultured in a complete medium of 1×RPMI1640 (10% FBS), respectively. Human non-small cell lung cancer cells A549 (KRAS G12S mutant type, Shanghai Cell Bank, Chinese Academy of Sciences) were cultured in a complete medium of 1× Ham's supplemented with 10% FBS, 1% double antibody, and 2 mM glutamine.
Adherent cells were digested with 0.25% pancreatin-EDTA (Gibco). The suspension cells were collected by centrifugation. The supernatant was discarded and the cell pellet was resuspended and counted. Different cell concentrations (5˜10×10^4 cells/mL) were prepared according to the growth cycle of each cell line and then seeded on a 96-well plate (Corning), 100 μL/well. The cells were incubated overnight at 37° C., 5% CO2. The compounds were added to the cells on the second day with 2 wells in parallel. The final concentration of organic solvent shall not exceed 1%. The cells were continually incubated for 3 to 5 days, and then subjected to MTT assay.
The compound of the present invention and the control compound were dissolved in DMSO (Sigma) respectively, with the purity of more than 98%. The compound was stored in a concentration of 10 mM at −20° C. and diluted to 2- or 10-fold series prior to use.
Dojindo CCK8 reagent kit was used as MTT assay. THERMO […] FC meter was used as microplate reader.
For adherent cells, culture medium was removed and immediately replaced with the fresh prepared medium which contains 10% CCK8 reagent (100 μL/well). For the suspension cells, CCK8 was directly added to 10% of the final concentration. The cells were continually incubated for 1˜4 h. When a dark yellow color could be observed in the solvent control wells, the absorbance value at OD450 nm was measured and the cell growth rate was calculated according to the following formula: Cell Growth Rate (%)=100*(T−T0)/(C−T0) T=optical density of drug treatment cell well—optical density of blank control well; T0=optical density of cell well before drug treatment—optical density of blank control well; C=optical density of cell well of solvent control group—optical density of blank control well. The concentration value of 50% inhibition of cell growth (GI50) was calculated according to the drug concentration and cell growth rate curve. The experiment was independently repeated 1˜3 times, and subject to biological statistical analysis. 4. Experimental Results
Tumor cell growth inhibition test was performed by selecting representative compounds (compounds 4, 11, 12, 16, 27, 68, 71, 77, 79, 89 and 116 of the present invention). The initial concentration of the compound was 5,000 nM, then it was serially diluted by 2-fold or 10-fold to 0.01 nM. […]

[3] = RS4-11, Cell lines of leukemia, read-out: GI 50 RS4: 11 FLT3 (WT)
[4] = FLT3 wild-type high expressing cell RS4, 11, Table 3, read-out: GI50 value, RS4, 11
[5] = RS4, 11, FLT3 WT, read-out: GI50

CC(C)(C)c1cc(NC(=O)Nc2ccc(-n3cnc4cc(O)ccc43)cc2)no1 [Compound 4, 1-(5-tert-butyl-isoxazol-3-yl)-3-[4-(5-hydroxy-benzimidazol-1-yl)-phenyl]-urea]
GI50 [1, 3]: 100 to 1000 nM
GI50 [1, 4]: 50 to 800 nM
GI50 [1, 5]: 234 nM
GI50 [2]: > 2500 nM

CC(C)(C)c1cc(NC(=O)Nc2ccc(-n3cnc4cc(OCCO)ccc43)cc2)no1 [Compound 11, 1-(5-tert-butyl-isoxazol-3-yl)-3-{4-[5-(2-hydroxy-ethoxyl)-benzimidazol-1-yl]-phenyl]-urea]
GI50 [1, 3]: 10 to 100 nM
GI50 [1, 4]: 50 to 800 nM
GI50 [1, 5]: 57.4 nM
GI50 [2]: > 2500 nM

CC(C)(C)c1cc(NC(=O)Nc2ccc(-n3cnc4cc(OCCN5CCOCC5)ccc43)cc2)no1 [Compound 16, 1-(5-tert-butyl-isoxazol-3-yl)-3-{4-[5-(2-morpholin-4-yl-ethoxyl)-benzimidazol-1-yl]-phenyl}-urea]
GI50 value, RS4; 11 (in words) [1]; 11: micromolar range
inhibitory effect on RS4; 11 [1]: no obvious inhibitory effect
GI50 [1, 3]: > 1000 nM
GI50 [1, 5]: 1750 nM
GI50 [2]: > 2500 nM

CC(C)(C)c1cc(NC(=O)Nc2ccc(-n3cnc4ccc(OCCN5CCOCC5)cc43)cc2)no1 [Compound 27, 1-(5-tert-butyl-isoxazol-3-yl)-3-{4-[6-(2morpholin-4-yl-ethoxyl)-benzimidazol-1-yl]-phenyl}-urea]
GI50 value, RS4; 11 (in words) [1]; 11: micromolar range
inhibitory effect on RS4; 11 [1]: no obvious inhibitory effect
GI50 [1, 3]: > 1000 nM
GI50 [1, 5]: 2380 nM
GI50 [2]: > 2500 nM

CC(C)(C)c1cc(NC(=O)Nc2ccc(-n3cnc4ccccc43)cc2)[nH]n1 [Compound 68, 1-(4-benzimidazol-1-yl-phenyl)-3-(5-tert-butyl-2H-pyrazol-3-yl)-urea]
GI50 value, RS4; 11 (in words) [1]; 11: micromolar range
inhibitory effect on RS4; 11 [1]: no obvious inhibitory effect
GI50 [1, 3]: > 1000 nM
GI50 [1, 5]: 3500 nM
GI50 [2]: > 2500 nM

COc1ccc2c(c1)ncn2-c1ccc(NC(=O)Nc2cc(C(C)(C)C)n[nH]2)cc1 [Compound 71, 1-(5-tert-butyl-2H-pyrazol-3-yl)-3-[4-(5-methoxyl-benzimidazol-1-yl)-phenyl]-urea]
GI50 value, RS4; 11 (in words) [1]; 11: micromolar range
inhibitory effect on RS4; 11 [1]: no obvious inhibitory effect
GI50 [1, 3]: > 1000 nM
GI50 [1, 5]: 2750 nM
GI50 [2]: > 2500 nM

COCCOc1ccc2c(c1)ncn2-c1ccc(NC(=O)Nc2cc(C(C)(C)C)n[nH]2)cc1 [Compound 77, 1-(5-tert-butyl-2H-pyrazol-3-yl)-3-{4-[5-(2-methoxyl-ethoxyl)-benzimidazol-1-yl]-phenyl}-urea]
GI50 value, RS4; 11 (in words) [1]; 11: micromolar range
inhibitory effect on RS4; 11 [1]: no obvious inhibitory effect
GI50 [1, 3]: > 1000 nM
GI50 [1, 5]: 2490 nM
GI50 [2]: > 2500 nM

CC(C)(C)c1cc(NC(=O)Nc2ccc(-n3cnc4cc(OCCO)ccc43)cc2)[nH]n1 [Compound 79, 1-(5-tert-butyl-2H-pyrazol-3-yl)-3-{4-[5-(2-hydroxy-ethoxyl)-benzimidazol-1-yl]-phenyl]urea]
GI50 [1, 3]: > 1000 nM
GI50 [1, 4]: 50 to 800 nM
GI50 [1, 5]: 768 nM
GI50 [2]: > 2500 nM

CC(C)(C)c1cc(NC(=O)Nc2ccc(-n3cnc4cc(OCCN5CCOCC5)ccc43)cc2)[nH]n1 [Compound 89, 1-(5-tert-butyl-2H-pyrazol-3-yl)-3-{4-[5-(2-morpholin-4-yl-ethoxyl)-benzimidazol-1-yl]-phenyl}-urea]
GI50 value, RS4; 11 (in words) [1]; 11: micromolar range
inhibitory effect on RS4; 11 [1]: no obvious inhibitory effect
GI50 [1, 3]: > 1000 nM
GI50 [1, 5]: 2090 nM
GI50 [2]: > 2500 nM

CC(C)(C)c1cc(N)n(C(=O)Nc2ccc(-n3cnc4ccccc43)cc2)n1 [Compound 116, 5-amino-3-tert-butyl-pyrazol-1-carboxylic acid (4-benzimidazol-1-yl-phenyl)-amide]
GI50 value, RS4; 11 (in words) [1]; 11: micromolar range
inhibitory effect on RS4; 11 [1]: no obvious inhibitory effect
GI50 [1, 3]: > 1000 nM
GI50 [1, 5]: 2100 nM
GI50 [2]: > 2500 nM
